Like-named read-outs stand apart in the source and are kept apart here.
Columns and labels:
[1] = Single-dose pharmacokinetics after IV bolus administration of EK-ECP; format: in vivo, male Sprague–Dawley rats; conditions: IV bolus 10 mg/kg EK-ECP; for half-life / AUC(0-t) / Vd: iv
Procedure: (§1) EK-ECP was administered to male Sprague–Dawley rats by either IV bolus (Group 1, 10 mg/kg) or oral gavage (Groups 2, 3 or 4, at 10, 100 or 1000 mg/kg, respectively) administration. Blood collection intervals were pre dose (0), and 0.25, 0.5, 1, 2, 4, 6, 8, 12, 24 and 36 h post dose. Plasma samples were analyzed for concentrations of 8,8′-bieckol, dieckol, and PFF-A; all pre-dose sample results were less than the lower limit of quantitation (LLOQ < 1 ng/mL). The time profiles of the plasma concentrations of 8,8′-bieckol, dieckol, and PFF-A in individual animals are illustrated in Figure 4. The mean pharmacokinetic parameters and corresponding coefficient of variation (CV) following IV administration of 10 mg/kg EK-ECP to male rats are illustrated in Table 1. Those following oral administrations of 10, 100 and 1000 mg/kg EK-ECP to male rats are illustrated in Table 2.
(§2) Total of 20 male CD® [Crl:CD®(SD)] rats (approximately 11.5 weeks of age) obtained from Charles River Laboratories (Portage, MI, USA) were used in our study. These included five rats with both jugular and femoral vein cannulations, and 15 rats with jugular vein cannulations. Of the 20 animals received, 16 male rats were placed in the study, comprising four rats with both jugular and femoral vein cannulations, and 12 rats with jugular vein cannulations. The rats were housed in the Mattawan facility of MPI Research Inc (currently Charles River Laboratories, Mattawan, MI, USA). Animal welfare for this study was in compliance with the U.S. Department of Agriculture’s (USDA) Animal Welfare Act (9 CFR Parts 1, 2 and 3). This facility maintained an animal welfare assurance statement with the National Institutes of Health Office of Laboratory Animal Welfare. All procedures were approved before the study by the institutional animal care utilization committee. Animals were individually housed and fed a basal diet of Lab Diet Certified Rodent Diet #5002, PMI Nutrition International, Inc. Food and water was available ad libitum except during fasting periods, when food was withheld, and during any required restraint periods, when both food and water were withheld. Animal rooms were maintained at (20 ± 2) °C and (50 ± 20)% relative humidity with a 12 h light/dark cycle throughout the study.
(§3) For intravenous administration, EK-ECP was dissolved in 70/25/5 (v/v) phosphate-buffered saline (PBS)/propylene glycol/ethanol (pH 5.1 final concentration of 2 mg/mL) and stabilized at room temperature for 24 h. For oral administration, after an amount of EK-ECP appropriate to the final targeted formulation concentrations was weighed and placed in a bottle, a small amount of the vehicle (water for injection) was added and mixed using a vortex mixer and heated to between 60 to 70 °C until homogeneously suspended. Additional amounts of the vehicle were gradually added to yield the targeted EK-ECP concentrations (1, 10, and 100 mg/mL). Dosing occurred within 4 h after preparation completion. The individual constituent doses of dieckol, 8,8′-bieckol, and PFF-A in each dosing formulation were analyzed by RP-HPLC followed by interpolation of the corresponding area% to the calibration curve prepared with known concentrations of isolated standards. The animals were fasted for a minimum of 4 h prior to dosing and through the first 4 h of blood sample collection. Each animal in Group 1 received a single intravenous (IV) dose of the 10 mg/kg EK-ECP. The intravenous doses were administered as a slow bolus injection over 5 min through the femoral vein cannula. The cannula was flushed with approximately 0.3 mL of sterile 0.9% sodium chloride for injection, USP, immediately following dosing. Each animal in Groups 2, 3 and 4 received a single oral (PO) gavage dose of the appropriate test article formulation, as outlined Table 3. Oral gavage dosing formulations were continuously stirred throughout dosing. […]

[2] = Single-dose pharmacokinetics and bioavailability after oral gavage administration of EK-ECP; format: in vivo, male Sprague–Dawley rats; conditions: for Tlast / Tmax: median (minimum-maximum); for half-life / AUC(0-t): po; for half-life / AUC(0-t) / Cmax / AUC(0-inf) / MRT last / Vd/F: mean (CV); for Vd/F: read-out: Vz/F
Procedure: as §1, §2, §3

[3] = Stability at pH 2 by UV–Vis spectroscopy (gastric juice degradation); format: physicochemical; conditions: period of at least 5 h, unpublished data
Text: To address the potential reduction in bioavailability due to degradation by gastric juice, we evaluated the stability of dieckol as a representative compound of phlorotannins at a pH of 2 using UV–Vis spectroscopy.

mouse-model = test system: mouse-model; set-up: method as in PMID 16042079; conditions: oral administration, mouse model ref 64; cited from earlier work
gut microbial ecosystem = conditions: hydroethanolic extract of Silvetia compressa ref 73; cited from earlier work
[4] = male, Sprague-Dawley, rat, plasma, mean (CV)
[5] = male, Sprague-Dawley, rat, plasma, PO 100 mg/kg EK-ECP
[6] = male, Sprague-Dawley, rat, plasma, PO 1000 mg/kg EK-ECP

SMILES: Oc1cc(O)cc(Oc2c(O)cc(O)c3c2Oc2c(O)cc(Oc4c(O)cc(Oc5c(O)cc(O)c6c5Oc5c(O)cc(O)cc5O6)cc4O)cc2O3)c1 [dieckol]
- plasma concentrations quantifiable up to [1]: 36 h
- T1/2 (terminal half-life) ([1]; mean (CV), 10 mg/kg): 11.9 (7) h
- Tlast ([1]; median (minimum-maximum)): 36 (36–36) h
- half-life ([1]; male, Sprague-Dawley, rat, plasma, 10 mg/kg, mean (CV), ln(2)·MRTlast, read-out: Effective T1/2 (converted)): 1.48 h
- AUC(0-t) ([1]; male, Sprague-Dawley, rat, plasma, 10 mg/kg, mean (CV), read-out: AUC(0–24h)): 5190 ng·h/mL
- AUC(0-t) ([1]; male, Sprague-Dawley, rat, plasma, 10 mg/kg, mean (CV), read-out: AUCTlast): 5290 ng·h/mL
- half-life ([1]; male, Sprague-Dawley, rat, plasma, 10 mg/kg, mean (CV), read-out: T1/2 (terminal half-life) (converted)): ~11.9 h
- Vd ([1]; male, Sprague-Dawley, rat, plasma, 10 mg/kg, mean (CV), read-out: Vss): 0.57 L/kg
- Vd ([1]; male, Sprague-Dawley, rat, plasma, 10 mg/kg, mean (CV), read-out: Vz): 3.35 L/kg
- AUC(0-inf) [1, 4]: 5390 ng·h/mL
- MRT last [1, 4]: 2.14 h
- clearance ([1]; male, Sprague-Dawley, rat, plasma, read-out: Mean clearance (Cl) (converted)): 3.22 mL/min/kg
- C0 [1, 4]: 8890 ng/mL
- plasma concentrations quantifiable up to ([2]; PO 100 mg/kg EK-ECP (Group 3)): 8 h
- Tlast ([2]; PO 100 mg/kg EK-ECP): 8 (6–8) h
- plasma concentrations quantifiable up to ([2]; PO 1000 mg/kg EK-ECP (Group 4), PFF-A in a single rat): 36 h
- Tlast ([2]; PO 1000 mg/kg EK-ECP): 36 (36–36) h
- fold increase in AUCTlast for a 1:10-fold increase in dose ([2]; PO 100 to 1000 mg/kg EK-ECP): ~49 fold
- fold increase in Cmax for a 1:10-fold increase in dose ([2]; PO 100 to 1000 mg/kg EK-ECP): ~41 fold
- half-life ([2]; male, Sprague-Dawley, rat, plasma, 100 mg/kg, PO 100 mg/kg EK-ECP, ln(2)·MRTlast, read-out: Effective T1/2 (converted)): 2.36 h
- AUC(0-t) ([2]; male, Sprague-Dawley, rat, plasma, 100 mg/kg, PO 100 mg/kg EK-ECP, read-out: AUC(0–24h)): 27.2 ng·h/mL
- AUC(0-t) ([2]; male, Sprague-Dawley, rat, plasma, 100 mg/kg, PO 100 mg/kg EK-ECP, read-out: AUCTlast): 24.3 ng·h/mL
- half-life ([2]; male, Sprague-Dawley, rat, plasma, 100 mg/kg, PO 100 mg/kg EK-ECP, read-out: T1/2 (terminal half-life) (converted)): 2.76 h
- half-life ([2]; male, Sprague-Dawley, rat, plasma, 1000 mg/kg, PO 1000 mg/kg EK-ECP, ln(2)·MRTlast, read-out: Effective T1/2 (converted)): 5.31 h
- AUC(0-t) ([2]; male, Sprague-Dawley, rat, plasma, 1000 mg/kg, PO 1000 mg/kg EK-ECP, read-out: AUC(0–24h)): 1130 ng·h/mL
- AUC(0-t) ([2]; male, Sprague-Dawley, rat, plasma, 1000 mg/kg, PO 1000 mg/kg EK-ECP, read-out: AUCTlast): 1200 ng·h/mL
- half-life ([2]; male, Sprague-Dawley, rat, plasma, 1000 mg/kg, PO 1000 mg/kg EK-ECP, read-out: T1/2 (terminal half-life) (converted)): 6.61 h
- bioavailability ([2]; male, Sprague-Dawley, rat, plasma, 100 and 1000 mg/kg oral dose of EK-ECP versus IV 10 mg/kg, dose-corrected, read-out: Bioavailability following oral gavage administration): 0.06 to 0.23%
- Cmax ([2]; male, Sprague-Dawley, rat, plasma, PO 100 mg/kg EK-ECP (Group 3)): 6.67 ng/mL
- AUC(0-inf) [2, 5]: 31.4 ng·h/mL
- MRT last [2, 5]: 3.4 h
- Vd/F [2, 5]: 1160 L/kg
- Tmax [2, 5]: 0.5 to 4 h
- Cmax ([2]; male, Sprague-Dawley, rat, plasma, PO 1000 mg/kg EK-ECP (Group 4), PFF-A N = 1): 274 ng/mL
- AUC(0-inf) [2, 6]: 1230 ng·h/mL
- MRT last [2, 6]: 7.67 h
- Vd/F [2, 6]: 768 L/kg
- Tmax [2, 6]: 0.5 h
- stability at pH 2 [3]: no significant changes
- oral dose with CNS-directed effect (as low as) (mouse-model): 1.0 mg/kg/bw
- metabolism during fermentation (gut microbial ecosystem): metabolized within eight hours of fermentation

Source: article PMC11595589, “A Pharmacokinetic and Bioavailability Study of Ecklonia cava Phlorotannins Following Intravenous and Oral Administration in Sprague–Dawley Rats” (Marine Drugs, 2024)
